Source: PMC10094450, “Investigation of the Entry Pathway and Molecular Nature of σ1 Receptor Ligands” (International Journal of Molecular Sciences, 2023)
Like-named read-outs stand apart in the source and are kept apart here.

Tests used:
[1] = biological target: T1, Hsσ1-R (Homo sapiens, UniProt Q99720); test: Fluorescence titration (intrinsic tryptophan fluorescence quenching) of purified Hsσ1-R
[2] = biological target: T1, Hsσ1-R; set-up: FLAG; made in house; host or cells: Sf9 insect cells (baculovirus, pFastbac1); method as in PMID 33525510; details: purified σ1R immobilized on a matrix; read-out: KD by SPR; cited from earlier work
[3] = read-out: KD2, low-affinity site, two-site model, 25 °C

T1 sequence (Q99720 whole entry): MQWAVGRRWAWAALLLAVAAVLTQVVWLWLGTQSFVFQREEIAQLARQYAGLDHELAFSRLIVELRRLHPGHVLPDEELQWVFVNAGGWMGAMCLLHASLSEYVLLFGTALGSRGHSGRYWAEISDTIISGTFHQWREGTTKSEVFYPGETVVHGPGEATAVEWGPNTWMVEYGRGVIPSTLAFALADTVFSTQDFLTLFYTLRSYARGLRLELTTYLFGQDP

Row | Kd ([1]; read-out: KD1, high-affinity site, two-site model, 25 °C) [µM] | Kd [1, 3] [µM] | KD for the high affinity site, fold better than that of pridopidine ([1]; versus pridopidine, same assay) [fold] | Kd [1] [µM] | SMILES | Kd [2] [µM]
1 | 0.01 ± 0.004 | 15.8 ± 4.03 | 25 |  | CC(=O)C1=CC[C@H]2[C@@H]3CCC4=CC(=O)CC[C@]4(C)[C@H]3CC[C@]12C [16,17-didehydroprogesterone] | 
2 |  | 33.1 ± 14.4 |  | 0.019 ± 0.015 | COc1cc(C(C)=O)ccc1OCCCN1CCC(c2noc3cc(F)ccc23)CC1 [Iloperidone] | 5
